From paper PMC9022726 (International journal of biological macromolecules, 2021)

Target: tau K18 (Homo sapiens, UniProt P10636)
Test: intrinsic fisetin fluorescence titration
Format: binding

Chain of tau K18 (P10636 561-689): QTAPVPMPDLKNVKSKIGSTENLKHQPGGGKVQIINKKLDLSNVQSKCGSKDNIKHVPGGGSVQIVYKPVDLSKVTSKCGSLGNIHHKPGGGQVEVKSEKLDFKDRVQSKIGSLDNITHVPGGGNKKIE

`O=c1c(O)c(-c2ccc(O)c(O)c2)oc2cc(O)ccc12` [fisetin] was tested, and the Kd was 22.6 ± 1.81 µM.
